Test system: KRas G12D-mediated phosphorylation of ERK
Assay: Inhibition of KRas G12D-mediated phosphorylation of ERK in AGS cells
Assay type: cell-based
Settings: Homo sapiens; AGS cells expressing G12D, 3 hours, phospho-ERK normalized to GAPDH
Outline: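 In-cell Western: p-ERK Thr202/Tyr204 signal over GAPDH, as % of DMSO control, with IC50 from a 4-parameter curve. AGS cells seeded 40,000/well for 12-14 h, exposed to compound 3 h at 0.5% DMSO final, then formaldehyde-fixed and methanol-permeabilized.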

Row | Structure (SMILES) | IC50
1 | Oc1cc(-c2ncc3c(N4C[C@H]5CC[C@@H](C4)N5)nc(OCC(F)(F)F)nc3c2F)c2ccccc2c1 [Example 48, 4-(4-((1R,5S)-3,8-diazabicyclo[3.2.1]octan-3-yl)-8-fluoro-2-(2,2,2-trifluoroethoxy)pyrido[4,3-d]pyrimidin-7-yl)naphthalen-2-ol] | 4880 nM
2 | CN1CC(COc2nc(N3C[C@H]4CC[C@@H](C3)N4)c3cnc(-c4cccc5cccc(Cl)c45)c(F)c3n2)CC1=O (stereo partly drawn) [Example 131, 4-(((4-((1R,5S)-3,8-diazabicyclo[3.2.1]octan-3-yl)-7-(8-chloronaphthalen-1-yl)-8-fluoropyrido[4,3-d]pyrimidin-2-yl)oxy)methyl)-1-methylpyrrolidin-2-one] | > 16700 nM
3 | Oc1ccc(OC(F)(F)F)c(-c2ncc3c(N4C[C@H]5CC[C@@H](C4)N5)nc(OCC45CCCN4CCC5)nc3c2F)c1 [Example 341, 3-(4-((1R,5S)-3,8-diazabicyclo[3.2.1]octan-3-yl)-8-fluoro-2-((tetrahydro-1H-pyrrolizin-7a(5H)-yl)methoxy)pyrido[4,3-d]pyrimidin-7-yl)-4-(trifluoromethoxy)phenol] | 837 nM
4 | CN1C[C@H](OC(=O)NCCOCc2ccc(O)cc2)C[C@H]1COc1nc(N2C[C@H]3CC[C@@H](C2)N3)c2cnc(-c3cccc4cccc(Cl)c34)c(F)c2n1 [Example 260, (3R,5S)-5-(((4-((1R,5S)-3,8-diazabicyclo[3.2.1]octan-3-yl)-7-(8-chloronaphthalen-1-yl)-8-fluoropyrido[4,3-d]pyrimidin-2-yl)oxy)methyl)-1-methylpyrrolidin-3-yl (2-((4-hydroxybenzyl)oxy)ethyl)carbamate] | > 16700 nM
5 | Nc1nccn1CCOc1nc(N2CC3CCC(C2)N3)c2cnc(-c3cccc4cccc(Cl)c34)c(F)c2n1 [Example 178, 1-[2-[7-(8-chloro-1-naphthyl)-4-(3,8-diazabicyclo[3.2.1]octan-3-yl)-8-fluoro-pyrido[4,3-d]pyrimidin-2-yl]oxyethyl]imidazol-2-amine] | > 16700 nM
6 | Fc1c(-c2cccc3cccc(Cl)c23)ncc2c(N3C[C@H]4CC[C@@H](C3)N4)nc(OCC34CCCN3CCC4)nc12 [Example 45, 4-((1R,5S)-3,8-diazabicyclo[3.2.1]octan-3-yl)-7-(8-chloronaphthalen-1-yl)-8-fluoro-2-((tetrahydro-1H-pyrrolizin-7a(5H)-yl)methoxy)pyrido[4,3-d]pyrimidine] | 840 nM
7 | Cn1ccnc1CCOc1nc(N2C[C@H]3CC[C@@H](C2)N3)c2cnc(-c3cc(O)cc4ccccc34)c(F)c2n1 [Example 3, 4-(4-((1R,5S)-3,8-diazabicyclo[3.2.1]octan-3-yl)-8-fluoro-2-(2-(1-methyl-1H-imidazol-2-yl)ethoxy)pyrido[4,3-d]pyrimidin-7-yl)naphthalen-2-ol] | 10300 nM
8 | CC1CCc2cccc(-c3ncc4c(N5CC6CCC(C5)N6)nc(OC[C@@]56CCCN5C[C@H](F)C6)nc4c3F)c21 (stereo partly drawn) [Example 429, 4-(3,8-diazabicyclo[3.2.1]octan-3-yl)-8-fluoro-2-(((2R,7aS)-2-fluorotetrahydro-1H-pyrrolizin-7a(5H)-yl)methoxy)-7-(3-methyl-2,3-dihydro-1H-inden-4-yl)pyrido[4,3-d]pyrimidine] | 1700 nM
9 | Fc1c(-c2cccc3cccc(Cl)c23)ncc2c(N3C[C@H]4CC[C@@H](C3)N4)nc(OCC34CCCN3CC(F)(F)C4)nc12 (stereo partly drawn) [Example 93, 4-((1R,5S)-3,8-diazabicyclo[3.2.1]octan-3-yl)-7-(8-chloronaphthalen-1-yl)-2-((2,2-difluorotetrahydro-1H-pyrrolizin-7a(5H)-yl)methoxy)-8-fluoropyrido[4,3-d]pyrimidine bis(2,2,2-trifluoroacetate)] | > 16700 nM
10 | COC1CN2CCCC2(COc2nc(N3CC4CCC(C3)N4)c3cnc(-c4cc(O)cc5cccc(F)c45)c(F)c3n2)C1 (mixture of isomers) [Example 388, 4-(4-((1R,5S)-3,8-diazabicyclo[3.2.1]octan-3-yl)-8-fluoro-2-((2-methoxytetrahydro-1H-pyrrolizin-7a(5H)-yl)methoxy)pyrido[4,3-d]pyrimidin-7-yl)-5-fluoronaphthalen-2-ol (mixture of trans diastereomers)] | 40.2 nM
11 | CCCOc1nc(N2C[C@H]3CC[C@@H](C2)N3)c2cnc(-c3cc(O)cc4ccccc34)c(F)c2n1 [Example 47, 4-(4-((1R,5S)-3,8-diazabicyclo[3.2.1]octan-3-yl)-8-fluoro-2-propoxypyrido[4,3-d]pyrimidin-7-yl)naphthalen-2-ol] | 4450 nM
12 | Fc1cccc(-c2ncc3c(N4C[C@H]5CC[C@@H](C4)N5)nc(OCC45CCCN4CCC5)nc3c2F)c1OC(F)F [Example 302, 4-((1R,5S)-3,8-diazabicyclo[3.2.1]octan-3-yl)-7-(2-(difluoromethoxy)-3-fluorophenyl)-8-fluoro-2-((hexahydro-1H-pyrrolizin-7a-yl)methoxy)pyrido[4,3-d]pyrimidine] | 1990 nM
13 | CN1CCC[C@H]1COc1nc(N2CC3CCC(C)(C2)N3)c2cnc(-c3cc(O)cc4ccccc34)c(F)c2n1 (stereo partly drawn) [Example 156, 4-(8-fluoro-4-(1-methyl-3,8-diazabicyclo[3.2.1]octan-3-yl)-2-(((S)-1-methylpyrrolidin-2-yl)methoxy)pyrido[4,3-d]pyrimidin-7-yl)naphthalen-2-ol bis(2,2,2-trifluoroacetate)] | 1790 nM
14 | Oc1cc(-c2ncc3c(N4CC5CCC(C4)N5)nc(OCC45CCCN4C[C@H](F)C5)nc3c2F)c2c(Cl)cccc2c1 (mixture of isomers) [Example 330, 4-(4-((1R,5S)-3,8-diazabicyclo[3.2.1]octan-3-yl)-8-fluoro-2-((2-fluorotetrahydro-1H-pyrrolizin-7a(5H)-yl)methoxy)pyrido[4,3-d]pyrimidin-7-yl)-5-chloronaphthalen-2-ol] | 11.8 nM
15 | CC1CCCc2cccc(-c3ncc4c(N5CC6CCC(C5)N6)nc(OC[C@@H]5CCCN5C)nc4c3F)c21 (stereo partly drawn) [Example 133, 4-((1R,5S)-3,8-diazabicyclo[3.2.1]octan-3-yl)-8-fluoro-7-(8-methyl-5,6,7,8-tetrahydronaphthalen-1-yl)-2-(((S)-1-methylpyrrolidin-2-yl)methoxy)pyrido[4,3-d]pyrimidine] | 2050 nM
16 | CC(C)c1ccc(O)cc1-c1ncc2c(N3CC4CCC(C3)N4)nc(OC[C@@]34CCCN3C[C@H](F)C4)nc2c1F (stereo in doubt) [Example 399, 3-(4-((1R,5S)-3,8-diazabicyclo[3.2.1]octan-3-yl)-8-fluoro-2-((2-fluorotetrahydro-1H-pyrrolizin-7a(5H)-yl)methoxy)pyrido[4,3-d]pyrimidin-7-yl)-4-isopropylphenol] | 510 nM
17 | FCCc1cccc2cccc(-c3ncc4c(N5C[C@H]6CC[C@@H](C5)N6)nc(OCC56CCCN5CCC6)nc4c3F)c12 [Example 248, 4-((1R,5S)-3,8-diazabicyclo[3.2.1]octan-3-yl)-8-fluoro-7-(8-(2-fluoroethyl)naphthalen-1-yl)-2-((tetrahydro-1H-pyrrolizin-7a(5H)-yl)methoxy)pyrido[4,3-d]pyrimidine] | 1080 nM
18 | Cc1nccn1CCOc1nc(N2C[C@H]3C[C@@H](O)[C@@H](C2)N3)c2cnc(-c3cccc4cccc(Cl)c34)c(F)c2n1 [Example 167, (1R,5R,6R)-3-(7-(8-chloronaphthalen-1-yl)-8-fluoro-2-(2-(2-methyl-1H-imidazol-1-yl)ethoxy)pyrido[4,3-d]pyrimidin-4-yl)-3,8-diazabicyclo[3.2.1]octan-6-ol] | 16100 nM
19 | O[C@@H]1C[C@@H]2CN(c3nc(OC[C@@]45CCCN4C[C@H](F)C5)nc4c(F)c(-c5cccc6cccc(Cl)c56)ncc34)C[C@H]1N2 [Example 395, (1R,5R,6R)-3-(7-(8-chloronaphthalen-1-yl)-8-fluoro-2-((2-fluorotetrahydro-1H-pyrrolizin-7a(5H)-yl)methoxy)pyrido[4,3-d]pyrimidin-4-yl)-3,8-diazabicyclo[3.2.1]octan-6-ol] | 1090 nM
20 | CN1CCC[C@H]1COc1nc(N2CC3CCC(C(N)=O)(C2)N3)c2cnc(-c3cc(O)cc4ccccc34)c(F)c2n1 (stereo partly drawn) [Example 159, 3-(8-fluoro-7-(3-hydroxynaphthalen-1-yl)-2-(((S)-1-methylpyrrolidin-2-yl)methoxy)pyrido[4,3-d]pyrimidin-4-yl)-3,8-diazabicyclo[3.2.1]octane-1-carboxamide bis(2,2,2-trifluoroacetate)] | > 16700 nM
21 | CN1C[C@H](NC(=O)c2cccc(S(=O)(=O)F)c2)C[C@H]1COc1nc(N2C[C@H]3CC[C@@H](C2)N3)c2cnc(-c3cccc4cccc(Cl)c34)c(F)c2n1 [Example 211, 3-(((3R,5S)-5-(((4-((1R,5S)-3,8-diazabicyclo[3.2.1]octan-3-yl)-7-(8-chloronaphthalen-1-yl)-8-fluoropyrido[4,3-d]pyrimidin-2-yl)oxy)methyl)-1-methylpyrrolidin-3-yl)carbamoyl)benzenesulfonyl fluoride tris(2,2,2-trifluoroacetate)] | 13500 nM
22 | Fc1c(-c2c(C(F)(F)F)ccc3[nH]ncc23)ncc2c(N3C[C@H]4CC[C@@H](C3)N4)nc(OCC34CCCN3CCC4)nc12 [Example 344, 4-((1R,5S)-3,8-diazabicyclo[3.2.1]octan-3-yl)-8-fluoro-2-((tetrahydro-1H-pyrrolizin-7a(5H)-yl)methoxy)-7-(5-(trifluoromethyl)-1H-indazol-4-yl)pyrido[4,3-d]pyrimidine] | 8070 nM
23 | CN(C)Cc1ccc(COCCNC(=O)O[C@@H]2C[C@@H](COc3nc(N4C[C@H]5CC[C@@H](C4)N5)c4cnc(-c5cccc6cccc(Cl)c56)c(F)c4n3)N(C)C2)cc1 [Example 308, (3R,5S)-5-(((4-((1R,5S)-3,8-diazabicyclo[3.2.1]octan-3-yl)-7-(8-chloronaphthalen-1-yl)-8-fluoropyrido[4,3-d]pyrimidin-2-yl)oxy)methyl)-1-methylpyrrolidin-3-yl (2-((4-((dimethylamino)methyl)benzyl)oxy)ethyl)carbamate] | > 5560 nM
24 | Cc1cccc2cccc(-c3ncc4c(N5C[C@H]6CC[C@@H](C5)N6)nc(OCC56CCCN5CCC6)nc4c3F)c12 [Example 334, 4-((1R,5S)-3,8-diazabicyclo[3.2.1]octan-3-yl)-8-fluoro-7-(8-methylnaphthalen-1-yl)-2-((tetrahydro-1H-pyrrolizin-7a(5H)-yl)methoxy)pyrido[4,3-d]pyrimidine] | 2910 nM
